Results reported in US20200131669A1, “CYCLIC PEPTIDE COMPOUND HAVING HIGH MEMBRANE PERMEABILITY, AND LIBRARY CONTAINING SAME” (Chugai Seiyaku Kabushiki Kaisha, priority 2017, published 2020).
Starred links: 1 amine or outer side, 2 acyl side, 3 side chain; linkers in the order of their positions; H or OH if unused. Positions of bridges follow the written chain, without caps; N, C: chain ends. Non-standard residues stand in square brackets, D forms with d. Residues, ends and D or L forms follow the SMILES beside them. ξ: configuration not given here. *: point of attachment. NMehPhe = CN[C@@H](CCc1ccccc1)C(=O)O; NMeF = CN[C@@H](Cc1ccccc1)C(=O)O; NMeGABA = CN(CCCC(=O)[*:2])[*:1]; hPhe = N[C@@H](CCc1ccccc1)C(=O)O; NMeL = CN[C@@H](CC(C)C)C(=O)O; NMeV = CN[C@H](C(=O)O)C(C)C; NMeAbu = CC[C@H](NC)C(=O)O; NMeS = CN[C@@H](CO)C(=O)O; NMeA = CN[C@@H](C)C(=O)O; Piperidide = C1CCN(*)CC1; Abu = CC[C@H](N)C(=O)O; Isopentyl = CC(C)CC*; ξS = NC(CO)C(=O)O; Sar = CNCC(=O)O; tBu = CC(C)(C)*

Test: Caco-2 membrane permeability, improved method as used in the following Examples (96-well, 20 to 24 h preincubation)
Type: in vitro ADME
Details: human, Caco-2, Caco-2
In short: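 Caco-2 monolayers were grown three weeks and preincubated 20–24 h at 37 °C with compound in DMEM+FaSSIF (1% DMSO) apically. The assay then used compound in FaSSIF/HBSS (1% DMSO, pH 6.0) apically and HBSS with 4% BSA (pH 7.4) basally. Basal samples were taken at 180 min for LC/MS, and Papp (cm/sec) was calculated.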

SMILES	Papp A→B at 180 min [×10⁻⁶ cm/s]
CC(C)CCOC[C@@H]1NC(=O)[C@H](CC(C)C)N(C)C(=O)CCCN(C)C(=O)C[C@@H](C(=O)N2CCCCC2)NC(=O)[C@H](CC(C)C)N(C)C(=O)[C@H](C)N(C)C(=O)[C@H]([C@@H](C)O)NC(=O)[C@H](CC(C)C)N(C)C(=O)[C@H](COC(C)(C)C)NC(=O)[C@H](Cc2ccccc2)N(C)C(=O)[C@H](Cc2ccccc2)N(C)C1=O [pd303] ([NMeGABA][NMeL]S(Isopentyl)[NMeF][NMeF]S(tBu)[NMeL]T[NMeA][NMeL]D-Piperidide; lactam N-11)	1
CC(C)CCOC[C@@H]1NC(=O)[C@H](C)N(C)C(=O)C[C@@H](C(=O)N2CCCCC2)NC(=O)[C@H](CC(C)C)N(C)C(=O)CN(C)C(=O)[C@H]([C@@H](C)O)NC(=O)[C@H](CC(C)C)N(C)C(=O)[C@H](Cc2ccccc2)N(C)C(=O)[C@H](C(C)C)NC(=O)[C@H](Cc2ccccc2)N(C)C(=O)[C@H](CC(C)C)N(C)C1=O [pd304] ([NMeA]S(Isopentyl)[NMeL][NMeF]V[NMeF][NMeL]T[Sar][NMeL]D-Piperidide; lactam N-11)	2.2
CC(C)CCOCC1NC(=O)[C@H](CC(C)C)N(C)C(=O)[C@H](Cc2ccccc2)N(C)C(=O)CN(C)C(=O)[C@H]([C@@H](C)O)NC(=O)[C@H](CC(C)C)N(C)C(=O)[C@H](C(C)C)NC(=O)[C@H](Cc2ccccc2)N(C)C(=O)CN(C)C(=O)C[C@@H](C(=O)N2CCCCC2)NC(=O)[C@H](CC(C)C)N(C)C1=O (stereo partly drawn) [pd305] ([Sar][NMeF]V[NMeL]T[Sar][NMeF][NMeL][ξS](Isopentyl)[NMeL]D-Piperidide; lactam N-11)	2.3
CC[C@H]1C(=O)N[C@@H]([C@@H](C)O)C(=O)N(C)CC(=O)N(C)[C@@H](COCCC(C)C)C(=O)N[C@@H](CC(C)C)C(=O)N(C)[C@@H](Cc2ccccc2)C(=O)N(C)[C@@H](CC(C)C)C(=O)N[C@H](C(=O)N2CCCCC2)CC(=O)N[C@H](C(C)C)C(=O)N(C)[C@@H](Cc2ccccc2)C(=O)N[C@@H](CC(C)C)C(=O)N1C [pd306] ([dV][NMeF]L[NMeAbu]T[Sar][NMeS](Isopentyl)L[NMeF][NMeL]D-Piperidide; lactam N-11)	1.2
CC[C@@H]1NC(=O)[C@H](Cc2ccccc2)N(C)C(=O)[C@H](COCCC(C)C)N(C)C(=O)[C@H](CC(C)C)NC(=O)[C@H](C)N(C)C(=O)C[C@@H](C(=O)N2CCCCC2)NC(=O)[C@H](CC(C)C)N(C)C(=O)CN(C)C(=O)[C@H]([C@@H](C)O)NC(=O)[C@H](CC(C)C)N(C)C(=O)[C@H](Cc2ccccc2)N(C)C1=O [pd307] ([NMeA]L[NMeS](Isopentyl)[NMeF][Abu][NMeF][NMeL]T[Sar][NMeL]D-Piperidide; lactam N-11)	2.9
CC(C)C[C@H]1C(=O)N(C)[C@@H](Cc2ccccc2)C(=O)N[C@@H](COC(C)(C)C)C(=O)N(C)[C@@H](C)C(=O)N[C@H](C(=O)N2CCCCC2)CC(=O)N(C)[C@@H](C)C(=O)N(C)[C@@H](Cc2ccccc2)C(=O)N[C@@H](CCc2ccccc2)C(=O)N(C)[C@@H](CC(C)C)C(=O)N[C@@H]([C@@H](C)O)C(=O)N(C)CC(=O)N1C [pd310] ([NMeA][NMeF][hPhe][NMeL]T[Sar][NMeL][NMeF]S(tBu)[NMeA]D-Piperidide; lactam N-11)	1.6
CC(C)C[C@H]1C(=O)N(C)[C@@H](Cc2ccccc2)C(=O)N[C@H](C(=O)N2CCCCC2)CC(=O)N(C)[C@@H](C(C)C)C(=O)N[C@@H](C)C(=O)N(C)[C@@H](Cc2ccccc2)C(=O)N(C)[C@@H](CC(C)C)C(=O)N(C)CC(=O)N[C@@H]([C@@H](C)O)C(=O)N(C)[C@@H](C(C)C)C(=O)N[C@@H](CCc2ccccc2)C(=O)N1C [pd311] ([NMeV]A[NMeF][NMeL][Sar]T[NMeV][hPhe][NMeL][NMeF]D-Piperidide; lactam N-11)	2.6
CC(C)C[C@@H]1NC(=O)[C@H](Cc2ccccc2)N(C)C(=O)[C@@H](C(C)C)NC(=O)C[C@@H](C(=O)N2CCCCC2)NC(=O)[C@H](C)N(C)C(=O)[C@H](CC(C)C)N(C)C(=O)[C@H](CCc2ccccc2)NC(=O)[C@H](CC(C)C)N(C)C(=O)CN(C)C(=O)[C@H]([C@@H](C)O)NC(=O)[C@H](CC(C)C)N(C)C1=O [pd312] ([dV][NMeF]L[NMeL]T[Sar][NMeL][hPhe][NMeL][NMeA]D-Piperidide; lactam N-11)	1.5
CC(C)C[C@H]1C(=O)N[C@@H](CCc2ccccc2)C(=O)N(C)[C@@H](Cc2ccccc2)C(=O)N(C)[C@@H](CC(C)C)C(=O)N[C@H](C(=O)N2CCCCC2)CC(=O)N[C@H](C(C)C)C(=O)N(C)[C@@H](C)C(=O)N[C@@H](C(C)C)C(=O)N(C)[C@@H](CC(C)C)C(=O)N[C@@H]([C@@H](C)O)C(=O)N(C)CC(=O)N1C [pd313] ([dV][NMeA]V[NMeL]T[Sar][NMeL][hPhe][NMeF][NMeL]D-Piperidide; lactam N-11)	2.5
CC(C)C[C@H]1NC(=O)C[C@@H](C(=O)N2CCCCC2)NC(=O)[C@H](C)N(C)C(=O)[C@H](CC(C)C)N(C)C(=O)[C@H](COC(C)(C)C)NC(=O)[C@H](CC(C)C)N(C)C(=O)CN(C)C(=O)[C@H]([C@@H](C)O)NC(=O)[C@H](CC(C)C)N(C)C(=O)[C@H](CCc2ccccc2)NC(=O)[C@H](Cc2ccccc2)N(C)C1=O [pd314] ([dL][NMeF][hPhe][NMeL]T[Sar][NMeL]S(tBu)[NMeL][NMeA]D-Piperidide; lactam N-11)	1.4
CC(C)C[C@H]1C(=O)N[C@@H](COC(C)(C)C)C(=O)N(C)[C@@H](Cc2ccccc2)C(=O)N(C)[C@@H](CC(C)C)C(=O)N[C@H](C(=O)N2CCCCC2)CC(=O)N[C@H](C(C)C)C(=O)N(C)[C@@H](CC(C)C)C(=O)N[C@@H](CCc2ccccc2)C(=O)N(C)[C@@H](CC(C)C)C(=O)N[C@@H]([C@@H](C)O)C(=O)N(C)CC(=O)N1C [pd315] ([dV][NMeL][hPhe][NMeL]T[Sar][NMeL]S(tBu)[NMeF][NMeL]D-Piperidide; lactam N-11)	1.7
CC[C@H](C)[C@@H]1NC(=O)[C@H](CC(C)C)N(C)C(=O)CCCN(C)C(=O)C[C@@H](C(=O)N2CCCCC2)NC(=O)[C@H](CC(C)C)N(C)C(=O)[C@H](C)N(C)C(=O)[C@H]([C@@H](C)O)NC(=O)[C@H](CC(C)C)N(C)C(=O)[C@H](CCc2ccccc2)NC(=O)[C@H](CC(C)C)N(C)C(=O)[C@H](Cc2ccccc2)N(C)C1=O [pd316] ([NMeGABA][NMeL]I[NMeF][NMeL][hPhe][NMeL]T[NMeA][NMeL]D-Piperidide; lactam N-11)	1.4
CC(C)C[C@H]1C(=O)N[C@H](C(=O)N2CCCCC2)CC(=O)N(C)CCCC(=O)N(C)[C@@H](CC(C)C)C(=O)N[C@@H](CCc2ccccc2)C(=O)N(C)[C@@H](CC(C)C)C(=O)N(C)[C@@H](Cc2ccccc2)C(=O)N[C@@H](COC(C)(C)C)C(=O)N(C)[C@@H](CC(C)C)C(=O)N[C@@H]([C@@H](C)O)C(=O)N(C)CC(=O)N1C [pd317] ([NMeGABA][NMeL][hPhe][NMeL][NMeF]S(tBu)[NMeL]T[Sar][NMeL]D-Piperidide; lactam N-11)	1.8
CC(C)C[C@H]1C(=O)N[C@H](C(=O)N2CCCCC2)CC(=O)N(C)[C@@H](C)C(=O)N[C@@H](C(C)C)C(=O)N(C)[C@@H](CC(C)C)C(=O)N(C)[C@@H](Cc2ccccc2)C(=O)N[C@@H](C)C(=O)N(C)[C@@H](C)C(=O)N(C)[C@@H](CC(C)C)C(=O)N[C@@H](CCc2ccccc2)C(=O)N(C)CC(=O)N1C [pd318] ([NMeA]V[NMeL][NMeF]A[NMeA][NMeL][hPhe][Sar][NMeL]D-Piperidide; lactam N-11)	2.5
CC[C@H]1C(=O)N[C@@H]([C@@H](C)O)C(=O)N(C)CC(=O)N(C)[C@@H](CC(C)C)C(=O)N[C@@H](CC(C)C)C(=O)N(C)[C@@H](Cc2ccccc2)C(=O)N(C)[C@@H](CC(C)C)C(=O)N[C@H](C(=O)N2CCCCC2)CC(=O)N[C@H](C(C)C)C(=O)N(C)[C@@H](CCc2ccccc2)C(=O)N[C@@H](CC(C)C)C(=O)N1C [pd320] ([dV][NMehPhe]L[NMeAbu]T[Sar][NMeL]L[NMeF][NMeL]D-Piperidide; lactam N-11)	1.7
CC(C)C[C@@H]1NC(=O)[C@H](CC(C)C)N(C)C(=O)CN(C)C(=O)[C@H]([C@@H](C)O)NC(=O)[C@H](CC(C)C)N(C)C(=O)[C@H](C(C)C)NC(=O)[C@H](Cc2ccccc2)N(C)C(=O)[C@@H](C)NC(=O)C[C@@H](C(=O)N2CCCCC2)NC(=O)[C@H](CC(C)C)N(C)C(=O)[C@H](CCc2ccccc2)N(C)C1=O [pd321] ([dA][NMeF]V[NMeL]T[Sar][NMeL]L[NMehPhe][NMeL]D-Piperidide; lactam N-11)	1.3

Same assay, conditions: human; Papp, Caco-2 membrane permeability, improved method; read-out: Caco-2

SMILES	Papp A→B at 180 min [×10⁻⁶ cm/s]
CC(C)CCOC[C@H]1C(=O)N[C@@H]([C@@H](C)O)C(=O)N(C)CC(=O)N(C)[C@@H](CC(C)C)C(=O)N[C@H](C(=O)N2CCCCC2)CC(=O)N(C)[C@@H](C)C(=O)N[C@@H](CC(C)C)C(=O)N(C)[C@@H](CC(C)C)C(=O)N(C)[C@@H](Cc2ccccc2)C(=O)N[C@@H](CC(C)C)C(=O)N(C)[C@@H](Cc2ccccc2)C(=O)N1C [pd308] ([NMeA]L[NMeL][NMeF]L[NMeF][NMeS](Isopentyl)T[Sar][NMeL]D-Piperidide; lactam N-11)	2.1
CC(C)C[C@H]1C(=O)N[C@@H]([C@@H](C)O)C(=O)N(C)CC(=O)N(C)[C@@H](Cc2ccccc2)C(=O)N(C)[C@@H](CC(C)C)C(=O)N[C@@H](C(C)C)C(=O)N(C)[C@@H](CC(C)C)C(=O)N[C@H](C(=O)N2CCCCC2)CC(=O)N(C)CC(=O)N(C)[C@@H](C(C)C)C(=O)N[C@@H](CCc2ccccc2)C(=O)N1C [pd319] ([Sar][NMeV][hPhe][NMeL]T[Sar][NMeF][NMeL]V[NMeL]D-Piperidide; lactam N-11)	2.2
